In publication PMC5218480 (PLoS ONE, 2017):

System: MV-4-11 cells
Experiment: Gene expression microarray analysis (Affymetrix PrimeView) and GSEA
Assay type: cell-based, human
Set-up: RFU PODN (11730768_x_at) / Fold change /veh PODN (11730768_x_at) / RFU LINC00158 (11744669_a_at) / Fold change /veh LINC00158 (11744669_a_at) / RFU DUSP10 (11751237_a_at) / Fold change /veh DUSP10 (11751237_a_at) / RFU ID3 (11757404_x_at) / Fold change /veh ID3 (11757404_x_at) / RFU PLEKHG5 (11737974_s_at) / Fold change /veh PLEKHG5 (11737974_s_at) / RFU LRRC4B (11730491_at) / Fold change /veh LRRC4B (11730491_at) / RFU GIMAP4 (11747438_a_at) / Fold change /veh GIMAP4 (11747438_a_at) / RFU KRT8 (11758183_x_at) / Fold change /veh KRT8 (11758183_x_at) / RFU CNN1 (11734310_a_at) / Fold change /veh CNN1 (11734310_a_at) / RFU VPS37D (11726825_at) / Fold change /veh VPS37D (11726825_at) / RFU C10orf10 (11716522_x_at) / Fold change /veh C10orf10 (11716522_x_at) / RFU KIR2DL2 /// KIR2DL4 /// KIR2DL5A /// KIR2DL5B /// KIR2DS1 /// KIR2DS2 /// KIR2DS3 /// KIR2DS4 /// KIR3DL3 /// KIR3DL3 /// KIR3DS1 (11738374_at) / Fold change /veh KIR2DL2 /// KIR2DL4 /// KIR2DL5A /// KIR2DL5B /// KIR2DS1 /// KIR2DS2 /// KIR2DS3 /// KIR2DS4 /// KIR3DL3 /// KIR3DL3 /// KIR3DS1 (11738374_at) / RFU C1QL1 (11718748_at) / Fold change /veh C1QL1 (11718748_at) / RFU TMPRSS4 (11747572_a_at) / Fold change /veh TMPRSS4 (11747572_a_at) / RFU HAMP (11756126_x_at) / Fold change /veh HAMP (11756126_x_at) / RFU RNFT2 (11725882_a_at) / Fold change /veh RNFT2 (11725882_a_at) / RFU NR4A2 (11747474_a_at) / Fold change /veh NR4A2 (11747474_a_at) / RFU ABCC12 (11746883_a_at) / Fold change /veh ABCC12 (11746883_a_at) / RFU TMEM136 (11760407_x_at) / Fold change /veh TMEM136 (11760407_x_at) / RFU CLDN22 /// WWC2 (11732394_at) / Fold change /veh CLDN22 /// WWC2 (11732394_at) / RFU HLA-DPB1 (11760878_x_at) / Fold change /veh HLA-DPB1 (11760878_x_at) / RFU SPINT1 (11716480_a_at) / Fold change /veh SPINT1 (11716480_a_at) / RFU GAP43 (11754022_s_at) / Fold change /veh GAP43 (11754022_s_at) / RFU A4GNT (11735810_at) / Fold change /veh A4GNT (11735810_at) / RFU PRB3 (11715151_x_at) / Fold change /veh PRB3 (11715151_x_at) / RFU TUBB4B (11761932_at) / Fold change /veh TUBB4B (11761932_at) / RFU CAPN14 (11732068_a_at) / Fold change /veh CAPN14 (11732068_a_at) / RFU TMCC2 (11721928_a_at) / Fold change /veh TMCC2 (11721928_a_at) / RFU IRGQ (11745062_a_at) / Fold change /veh IRGQ (11745062_a_at) / RFU FAM174B (11720279_a_at) / Fold change /veh FAM174B (11720279_a_at) / RFU TMPRSS4 (11748680_a_at) / Fold change /veh TMPRSS4 (11748680_a_at) / RFU FAM212B (11763350_a_at) / Fold change /veh FAM212B (11763350_a_at) / RFU PLEKHG5 (11743358_a_at) / Fold change /veh PLEKHG5 (11743358_a_at) / RFU ZSCAN30 (11745921_a_at) / Fold change /veh ZSCAN30 (11745921_a_at) / RFU CMKLR1 (11741424_a_at) / Fold change /veh CMKLR1 (11741424_a_at) / RFU LOC101060620 /// MAPK8IP1 (11723275_at) / Fold change /veh LOC101060620 /// MAPK8IP1 (11723275_at) / RFU SPTSSB (11747773_x_at) / Fold change /veh SPTSSB (11747773_x_at) / RFU PRSS12 (11739890_at) / Fold change /veh PRSS12 (11739890_at) / RFU BIN1 (11741810_x_at) / Fold change /veh BIN1 (11741810_x_at) / RFU WNT11 (11732464_a_at) / Fold change /veh WNT11 (11732464_a_at) / RFU C10orf10 (11716521_a_at) / Fold change /veh C10orf10 (11716521_a_at) / RFU C5orf56 (11738089_at) / Fold change /veh C5orf56 (11738089_at) / RFU CYB561 (11721691_x_at) / Fold change /veh CYB561 (11721691_x_at) / RFU ANKRD19P (11752326_a_at) / Fold change /veh ANKRD19P (11752326_a_at) / RFU OR2T12 /// OR2T33 /// OR2T8 (11738714_s_at) / Fold change /veh OR2T12 /// OR2T33 /// OR2T8 (11738714_s_at) / RFU VCAN (11748164_a_at) / Fold change /veh VCAN (11748164_a_at) / RFU JSRP1 (11732532_at) / Fold change /veh JSRP1 (11732532_at) / RFU KRTAP10-11 (11738290_x_at) / Fold change /veh KRTAP10-11 (11738290_x_at) / RFU MYO3A (11730013_a_at) / Fold change /veh MYO3A (11730013_a_at) / RFU EBF3 (11725865_a_at) / Fold change /veh EBF3 (11725865_a_at) / RFU CAMK2N1 (11719241_x_at) / Fold change /veh CAMK2N1 (11719241_x_at) / RFU C5orf56 (11738088_a_at) / Fold change /veh C5orf56 (11738088_a_at) / RFU OLFML3 (11715873_a_at) / Fold change /veh OLFML3 (11715873_a_at) / RFU LOC100653217 /// NTM (11731650_a_at) / Fold change /veh LOC100653217 /// NTM (11731650_a_at) / RFU MAPK11 (11762145_a_at) / Fold change /veh MAPK11 (11762145_a_at) / RFU FIZ1 (11724087_x_at) / Fold change /veh FIZ1 (11724087_x_at) / RFU OASL (11726364_x_at) / Fold change /veh OASL (11726364_x_at) / RFU SOX15 (11748057_x_at) / Fold change /veh SOX15 (11748057_x_at) / RFU CD79A (11719716_a_at) / Fold change /veh CD79A (11719716_a_at) / RFU HIST1H1D (11736915_at) / Fold change /veh HIST1H1D (11736915_at) / RFU CASKIN2 (11723855_a_at) / Fold change /veh CASKIN2 (11723855_a_at) / RFU LOC730098 (11760151_x_at) / Fold change /veh LOC730098 (11760151_x_at) / RFU OR4N2 (11742367_at) / Fold change /veh OR4N2 (11742367_at) / RFU PRRT2 (11749266_a_at) / Fold change /veh PRRT2 (11749266_a_at) / RFU SNX32 (11753110_a_at) / Fold change /veh SNX32 (11753110_a_at) / RFU CDHR5 (11726645_a_at) / Fold change /veh CDHR5 (11726645_a_at) / RFU RCAN1 (11760418_a_at) / Fold change /veh RCAN1 (11760418_a_at) / RFU FAM167A (11723789_a_at) / Fold change /veh FAM167A (11723789_a_at) / RFU FAM26E (11764081_at) / Fold change /veh FAM26E (11764081_at) / RFU ISYNA1 (11749810_s_at) / Fold change /veh ISYNA1 (11749810_s_at) / RFU ACY1 (11761880_at) / Fold change /veh ACY1 (11761880_at) / RFU 11764098_at / Fold change /veh 11764098_at / RFU SAMD14 (11745864_x_at) / Fold change /veh SAMD14 (11745864_x_at) / RFU NPB (11741838_a_at) / Fold change /veh NPB (11741838_a_at) / RFU TMPRSS6 (11731388_a_at) / Fold change /veh TMPRSS6 (11731388_a_at) / RFU KRTAP10-2 (11738614_at) / Fold change /veh KRTAP10-2 (11738614_at) / RFU ARHGAP8 /// PRR5-ARHGAP8 (11727945_x_at) / Fold change /veh ARHGAP8 /// PRR5-ARHGAP8 (11727945_x_at) / RFU KRTAP5-7 /// NADSYN1 (11734609_at) / Fold change /veh KRTAP5-7 /// NADSYN1 (11734609_at) / RFU RASL12 (11751679_a_at) / Fold change /veh RASL12 (11751679_a_at) / RFU CDKN2B (11736163_a_at) / Fold change /veh CDKN2B (11736163_a_at) / RFU PRF1 (11729649_at) / Fold change /veh PRF1 (11729649_at) / RFU, ZNF638 /// ZNF638-IT1 / Fold change vs veh, ZNF638 /// ZNF638-IT1 / RFU, PANK3 / Fold change vs veh, PANK3 / RFU, SH3YL1 / Fold change vs veh, SH3YL1 / RFU, ZEB2 / Fold change vs veh, ZEB2 / RFU, NRIP1 / Fold change vs veh, NRIP1 / RFU, PTTG1IP / Fold change vs veh, PTTG1IP / RFU, CAPN2 / Fold change vs veh, CAPN2 / RFU, MED14 / Fold change vs veh, MED14 / RFU, SNORA58 / Fold change vs veh, SNORA58 / RFU, C1orf63 / Fold change vs veh, C1orf63 / RFU, LRRFIP1 / Fold change vs veh, LRRFIP1 / RFU, NDUFAF7 / Fold change vs veh, NDUFAF7 / RFU, SLC12A2 / Fold change vs veh, SLC12A2 / RFU, IBTK / Fold change vs veh, IBTK / RFU, ESF1 / Fold change vs veh, ESF1 / Fold change vs veh, TMEM50B / RFU, TAOK1 / Fold change vs veh, TAOK1 / RFU, ACBD3 / Fold change vs veh, ACBD3 / RFU, TMA16 / Fold change vs veh, TMA16 / RFU, RWDD3 / Fold change vs veh, RWDD3 / RFU, BCAT1 / Fold change vs veh, BCAT1 / RFU, EDEM3 / Fold change vs veh, EDEM3 / RFU, TMEM33 / Fold change vs veh, TMEM33 / RFU, WDR75 / Fold change vs veh, WDR75 / RFU, AHCTF1 / Fold change vs veh, AHCTF1 / RFU, TFRC / Fold change vs veh, TFRC / RFU, ZDHHC17 / Fold change vs veh, ZDHHC17 / RFU, NOM1 / Fold change vs veh, NOM1 / RFU, ARL8B / Fold change vs veh, ARL8B / RFU, ZBTB11 / Fold change vs veh, ZBTB11 / RFU, TAMM41 / Fold change vs veh, TAMM41 / RFU, KIAA1704 /// LOC100996395 / Fold change vs veh, KIAA1704 /// LOC100996395 / RFU, ING1 / Fold change vs veh, ING1 / RFU, TRMT61B / Fold change vs veh, TRMT61B / RFU, FUBP3 / Fold change vs veh, FUBP3 / RFU, TP53 / Fold change vs veh, TP53 / RFU, TNKS2 / Fold change vs veh, TNKS2 / RFU, ZFP14 / Fold change vs veh, ZFP14 / RFU, ACTR2 / Fold change vs veh, ACTR2 / RFU, PPP3R1 / Fold change vs veh, PPP3R1 / RFU, PIK3R1 / Fold change vs veh, PIK3R1 / RFU, HNRNPA1 / Fold change vs veh, HNRNPA1 / RFU, RNF170 / Fold change vs veh, RNF170 / RFU, ZNF28 / Fold change vs veh, ZNF28 / RFU, RNGTT / Fold change vs veh, RNGTT / RFU, OGT / Fold change vs veh, OGT / RFU, BRD1 / Fold change vs veh, BRD1 / RFU, MARS / Fold change vs veh, MARS / RFU, ZNF655 / Fold change vs veh, ZNF655 / RFU, FAHD1 / Fold change vs veh, FAHD1 / RFU, BDP1 / Fold change vs veh, BDP1 / RFU, LRRCC1 / Fold change vs veh, LRRCC1 / RFU, ARID1A / Fold change vs veh, ARID1A / RFU, ZNF146 / Fold change vs veh, ZNF146 / RFU, ZNF330 / Fold change vs veh, ZNF330 / RFU, GPN3 / Fold change vs veh, GPN3 / RFU, C9orf123 / Fold change vs veh, C9orf123 / RFU, N4BP2L2 / Fold change vs veh, N4BP2L2 / RFU, ARFIP1 / Fold change vs veh, ARFIP1 / RFU, FAM179B / Fold change vs veh, FAM179B / RFU, BCL10 / Fold change vs veh, BCL10 / RFU, UHRF1BP1L / Fold change vs veh, UHRF1BP1L / RFU, BET1 / Fold change vs veh, BET1 / RFU, CNOT2 / Fold change vs veh, CNOT2 / RFU, ZNF268 / Fold change vs veh, ZNF268 / Fold change vs veh, ZNF507 / RFU, DGCR2 / Fold change vs veh, DGCR2 / RFU, WDSUB1 / Fold change vs veh, WDSUB1 / Fold change vs veh, HSP90B1 /// MIR3652 / RFU, ADSS / Fold change vs veh, ADSS / RFU, GK / Fold change vs veh, GK / RFU, ZNF148 / Fold change vs veh, ZNF148 / RFU, TAF9 / Fold change vs veh, TAF9 / RFU, SLC1A5 / Fold change vs veh, SLC1A5 / RFU, SLMO2 / Fold change vs veh, SLMO2 / RFU, ABCC4 / Fold change vs veh, ABCC4 / RFU, LOC101060439 /// RAP1B / Fold change vs veh, LOC101060439 /// RAP1B / RFU, RFX7 / Fold change vs veh, RFX7 / RFU, GTPBP10 / Fold change vs veh, GTPBP10 / RFU, CNEP1R1 / Fold change vs veh, CNEP1R1 / RFU, BIVM-ERCC5 /// ERCC5 / Fold change vs veh, BIVM-ERCC5 /// ERCC5 / RFU, ILF3 / Fold change vs veh, ILF3 / RFU 11762660_at / Fold change /veh 11762660_at / RFU VCAN (11757783_s_at) / Fold change /veh VCAN (11757783_s_at) / RFU DDX43 (11728927_at) / Fold change /veh DDX43 (11728927_at) / RFU KRT8 (11758188_x_at) / Fold change /veh KRT8 (11758188_x_at) / RFU NKD1 (11759106_at) / Fold change /veh NKD1 (11759106_at) / RFU SRD5A1 (11742802_a_at) / Fold change /veh SRD5A1 (11742802_a_at) / RFU TPSAB1 /// TPSB2 (11721975_s_at) / Fold change /veh TPSAB1 /// TPSB2 (11721975_s_at) / RFU GSTM3 (11746129_a_at) / Fold change /veh GSTM3 (11746129_a_at) / RFU IL23R (11737362_x_at) / Fold change /veh IL23R (11737362_x_at) / RFU TMEM51 (11727254_a_at) / Fold change /veh TMEM51 (11727254_a_at) / RFU PIWIL2 (11732686_x_at) / Fold change /veh PIWIL2 (11732686_x_at) / RFU ORM1 (11744905_x_at) / Fold change /veh ORM1 (11744905_x_at) / RFU CCDC152 (11743942_at) / Fold change /veh CCDC152 (11743942_at) / RFU ECM1 (11717891_a_at) / Fold change /veh ECM1 (11717891_a_at) / RFU IL23R (11748794_a_at) / Fold change /veh IL23R (11748794_a_at) / RFU TNFAIP8L3 (11732012_x_at) / Fold change /veh TNFAIP8L3 (11732012_x_at) / RFU MBOAT4 (11741988_at) / Fold change /veh MBOAT4 (11741988_at) / RFU 11764193_at / Fold change /veh 11764193_at / RFU TMEM53 (11763286_at) / Fold change /veh TMEM53 (11763286_at) / RFU MAGEB2 (11727129_at) / Fold change /veh MAGEB2 (11727129_at) / RFU TMEM200A (11744735_a_at) / Fold change /veh TMEM200A (11744735_a_at) / RFU CCDC152 (11751479_a_at) / Fold change /veh CCDC152 (11751479_a_at) / RFU FAM211A (11726209_a_at) / Fold change /veh FAM211A (11726209_a_at) / RFU RGS16 (11746705_a_at) / Fold change /veh RGS16 (11746705_a_at) / RFU VCAN (11755009_s_at) / Fold change /veh VCAN (11755009_s_at) / RFU RHOB (11743442_s_at) / Fold change /veh RHOB (11743442_s_at) / RFU RGS16 (11720943_a_at) / Fold change /veh RGS16 (11720943_a_at) / RFU RGS16 (11720944_at) / Fold change /veh RGS16 (11720944_at) / RFU, VPS4B / Fold change vs veh, VPS4B / RFU, CREB1 / Fold change vs veh, CREB1 / RFU, DNAJC13 / Fold change vs veh, DNAJC13 / RFU, GNAQ / Fold change vs veh, GNAQ / RFU, CDK5R1 / Fold change vs veh, CDK5R1 / RFU, ZRANB3 / Fold change vs veh, ZRANB3 / RFU, CUL4A / Fold change vs veh, CUL4A / RFU, CCNY / Fold change vs veh, CCNY / RFU, UFL1 / Fold change vs veh, UFL1 / RFU, COG3 / Fold change vs veh, COG3 / RFU, DIAPH2 / Fold change vs veh, DIAPH2 / RFU, SKA2 / Fold change vs veh, SKA2 / RFU, AFF3 / Fold change vs veh, AFF3 / RFU, LMF1 / Fold change vs veh, LMF1 / RFU, IPO11 / Fold change vs veh, IPO11 / RFU, DFFB / Fold change vs veh, DFFB / RFU, FOXP1 / Fold change vs veh, FOXP1 / RFU, CARD8 / Fold change vs veh, CARD8 / RFU, STRN3 / Fold change vs veh, STRN3 / RFU, ADK / Fold change vs veh, ADK / RFU, RASSF2 / Fold change vs veh, RASSF2 / RFU, WIPF1 / Fold change vs veh, WIPF1 / RFU, LARP1B / Fold change vs veh, LARP1B / RFU, RASA1 / Fold change vs veh, RASA1 / RFU, RB1 / Fold change vs veh, RB1 / RFU, PPFIA1 / Fold change vs veh, PPFIA1 / RFU, MAT2A / Fold change vs veh, MAT2A / RFU, CCT5 / Fold change vs veh, CCT5 / RFU, WDR92 / Fold change vs veh, WDR92 / RFU, CUX1 / Fold change vs veh, CUX1 / RFU, TTC7A / Fold change vs veh, TTC7A / RFU, TMEM135 / Fold change vs veh, TMEM135 / RFU, DEPTOR / Fold change vs veh, DEPTOR / RFU, CPM / Fold change vs veh, CPM / RFU, DNAJB6 / Fold change vs veh, DNAJB6 / RFU, CACNA2D3 / Fold change vs veh, CACNA2D3 / RFU, DTX4 / Fold change vs veh, DTX4 / RFU, TFCP2 / Fold change vs veh, TFCP2 / RFU, GMCL1 /// GMCL1P1 / Fold change vs veh, GMCL1 /// GMCL1P1 / RFU, AEBP2 / Fold change vs veh, AEBP2 / RFU, SNHG1 /// SNORD22 /// SNORD25 /// SNORD26 /// SNORD27 /// SNORD28 /// SNORD29 /// SNORD31 / Fold change vs veh, SNHG1 /// SNORD22 /// SNORD25 /// SNORD26 /// SNORD27 /// SNORD28 /// SNORD29 /// SNORD31 / Fold change (Aza/veh), C12orf56 (ProbeSet 11735607_a_at) / Fold change (ACY-1035/veh), C12orf56 (ProbeSet 11735607_a_at) / Fold change (Aza/veh), FGFR1OP (ProbeSet 11751329_s_at) / Fold change (ACY-1035/veh), FGFR1OP (ProbeSet 11751329_s_at) / Fold change (Aza/veh), VPS36 (ProbeSet 11739960_a_at) / Fold change (ACY-1035/veh), VPS36 (ProbeSet 11739960_a_at) / RFU SYPL1 (11715823_x_at) / Fold change /veh SYPL1 (11715823_x_at) / RFU IGFBP7 (11715501_s_at) / Fold change /veh IGFBP7 (11715501_s_at) / RFU REEP3 (11722064_at) / Fold change /veh REEP3 (11722064_at) / RFU IGLL1 (11728026_x_at) / Fold change /veh IGLL1 (11728026_x_at): dose or concentration left out as unconfirmed
Settings: ProbeSet 11732306_x_at; LIST D

Nc1ccc(-c2cccs2)cc1NC(=O)c1ccc2c(c1)cc(C1CC1)n2CCN1CCOCC1 [ACY-1035]
Fold change vs veh, CREB1: 0.87
